# Measured values published in US7498352B2, “TGF-β superfamily production/secretion promoter” (Takeda Pharmaceutical Company Limited, priority 2001, dated 2009).
# What was measured:
# GDNF = GDNF content of sciatic nerve of KKAy mice fed compound, measured by ELISA; assay type: in vivo, mouse; settings: 17 week-old female KKAy mice, powder feed containing 0.01% of compound for 7 weeks
# Experimental: 17 week-old female KKAy mice (n=10-12) were maintained for 7 weeks on a powder feed (CRF-1, manufactured by Oriental Yeast Co., Ltd.) containing 0.01% of compound (5). Then, sciatic nerve of the mouse was taken and stored at −80° C., until use for the measurement (ca. 10 months).
# The stored sciatic nerve was ultrasonicated in a 20-fold volume of a homogenized buffer (0.1 M tris hydrochloride buffer containing 1M sodium chloride, 2% BSA, 2 mM EDTA, 80 trypsin unit/L of aprotinin, 0.02% sodium azide, pH 7.6) and insoluble materials were separated by centrifugation (15,000 rpm, 30 min). The GDNF content of the supernatant was measured by the following ELISA method.
# Thus, an anti-hGDNF goat antibody (100 μg/ml) (Genzyme-Techne) was distributed in 10-μl portions in the wells of 96-well round bottom plates and antibody adsorption was allowed to proceed by 2 hours incubation at room temperature. After removing the antibody, each well was washed three times with a washing solution. […] After washing, 30 μl of 4-methylumbelliferyl-β-D-galactoside (produced by Sigma) (10 μg/ml) was added to the substrate, the reaction was allowed to proceed at room temperature for 4 hours and then terminated by addition of 130 μl of 0.1 M glycine-sodium hydroxide buffer (pH 10.3), and the fluorescent intensity of the 4-methylumbelliferone produced was determined (Ex: 360 nm; Em: 450 nm). […]
# GDF-15 = GDF-15 expression in dorsal root ganglion of STZ diabetic neuropathy rats, real time quantitative RT-PCR; assay type: in vivo, rat; settings: STZ (70 mg/kg) male SD rats, 10 mg/kg body weight/day orally for 4 months
# Experimental: Streptozotocin (STZ) was administered to 6-week-old male SD rats (n=5-8) at 70 mg/kg to prepare diabetic neuropathy models. Starting from 4 months of the STZ administration, compound (5) was orally administered to the rats for 4 months at the dose of 10 mg/kg body weight/day. Then, dorsal root ganglion of the rats was removed, treated with ISOGEN solution (NIPPON GENE CO., LTD.) and the total RNA was extracted.
# Using the obtained total RNA, a primer depicted in 5′-ACTGCATGCCAACCAGAGC-3′ (SEQ ID:1) and a primer depicted in 5′-[…]-3′ (SEQ ID:2), which were prepared based on the reported mRNA sequence of GDF-15, and a fluorescent probe having a GDF-15 specific sequence, […] (SEQ ID:3), and acidic ribosomal phosphoprotein PO as an endogenous control, a real time quantitative RT-PCR (Applied Biosystems) was performed.
# left sciatic nerve = assay: Maximum distance of nerve extension (evoked potential) after sciatic nerve transection in STZ diabetic neuropathy rats; assay type: in vivo, rat; settings: left sciatic nerve transected, 10 mg/kg body weight/day orally for 5 weeks
# Experimental: Streptozotocin (STZ, 70 mg/kg) was intravenously injected to 6-week-old male SD rats (n=9-10) to prepare diabetic neuropathy models. After 2 weeks of the STZ administration, the left sciatic nerve of the rats was transected under anesthesia, and compound (5) was orally administered at the dose of 10 mg/kg body weight/day for 5 weeks. After the completion of the administration, the rats were anesthetized, and the distance (maximum distance of extension) from the nerve transection site to the detectable site was measured for evoked potential using a device detecting evoked potential [Neuropack 2, manufactured by NIHON KOHDEN CORPORATION]. As a result, the maximum extension of the compound (5) administration group was extended by 2.4 times as compared to that of the compound (5) non-administration group (control group).
smiles,measurement,setting,value
"Cc1ccccc1OCCCc1oc(-n2ccnc2C)nc1-c1ccc(Cl)cc1 [compound (5), 4-(4-chlorophenyl)-2-(2-methyl-1-imidazolyl)-5-[3-(2-methylphenoxy)propyl]oxazole]",increase of GDNF content in the sciatic nerve as compared to the control group,GDNF,87.9%
same,increase of GDF-15 expression level as compared to non-administration group (control group),GDF-15,135%
same,maximum extension (distance from nerve transection site to site with detectable evoked potential) relative to control group,left sciatic nerve; STZ (70 mg/kg i.v.) male SD rats,2.4 times
same,effect of neuroneogenesis and of restoring nerve function,left sciatic nerve; STZ male SD rats,an effect of neuroneogenesis and an effect of restoring nerve function were observed
